Reference: patent US20210030761A1, “TREATMENT AND PREVENTION OF ALPHA HERPES VIRUS INFECTION” (THE REGENTS OF THE UNIVERSITY OF COLORADO, a body corporate, priority 2018, published 2021)

Assays:
[1] = system: quiescent uninfected spinal astrocytes; assay: Substance P treatment of uninfected spinal astrocytes: NK-1R distribution by immunofluorescence and process formation by CellTracker Deep Red; format: cell-based, human; conditions: 10^−6 M substance P for 60 minutes
Procedure: (§1) Cell Culture and Infection: Primary human spinal astrocytes (HA-sp; Sciencell, Carlsbad, Calif.) were seeded at 5,000 cells/cm' in a basal astrocyte medium containing 2% fetal bovine serum (FBS), 1% astrocyte growth supplement, and 1% 100× penicillin-streptomycin (Sciencell). After 24 hours, medium was changed to basal astrocyte medium containing 0.1% FBS and 1% 100× penicillin-streptomycin that was replenished every 72 hours for 7 days to establish quiescence. On day 7, spinal astrocytes were co-cultivated with VZV-infected spinal astrocytes (40 pfu/mL) or mock-infected spinal astrocytes. […] Light microscopy images to observe a cytopathic effect were obtained at 12, 24, 48 and 72 HPI followed by DNA extraction and PCR quantification of VZV DNA as described below. Substance P ELISA: Substance P was quantitated from mock- and VZV-infected HA-sp using a colorimetric competitive enzyme immunoassay kit according to the manufacturer's instructions (Enzo, Farmingdale, N.Y.). The sensitivity range was 9.76-10,000 pg/mL, as determined by controls run on the same assay as samples. Immunofluorescence Assay: HA-sp were propagated and treated as described above in an ibidi 24-well μ-Plate (ibidi, Martinsried, Germany). […] GFAP and NK-1R were detected using a 1:500 dilution of chicken anti-GFAP (Abcam) and a 1:100 dilution of rabbit anti-NK-1R (Novus Biologicals LLC, Littleton, Colo.), respectively. […]

uninfected HA-sp = conditions: tested at 1-100 μM, data not shown
Procedure: as §1

[2] = system: VZV-infected primary human spinal astrocytes (HA-sp); assay: Immunocytochemistry of cellular processes and NK-1R localization in VZV-infected HA-sp; format: cell-based; conditions: 3 DPI; 10 μM aprepitant; versus vehicle
Procedure: as §1

VZV = assay: Total VZV DNA in adult primary human perineurial cells (HPNCs); format: cell-based, varicella zoster virus; conditions: 72 HPI
Excerpt: At 12, 24, 48, and 72 HPI, cells were visualized by light microscopy in the untreated and treated cultures and harvested for DNA.

substance P
NK-1R localization [1]: detected predominantly in cytoplasm | lamellipodia formation ([1]; CellTracker Deep Red): lack of lamellipodia

C[C@@H](O[C@H]1OCCN(Cc2n[nH]c(=O)[nH]2)[C@H]1c1ccc(F)cc1)c1cc(C(F)(F)F)cc(C(F)(F)F)c1 [aprepitant]
optimal concentration to avoid cell death (uninfected HA-sp): 10 µM | lamellipodia formation in VZV-infected cells [2]: reduction in lamellipodia formation

C[C@@H](OC[C@@]1(c2ccccc2)CC[C@]2(CCC(=O)N2)CN1)c1cc(C(F)(F)F)cc(C(F)(F)F)c1 [rolapitant]
total VZV DNA (VZV; treated at 24 HPI): significantly reduced total VZV DNA | total VZV DNA (VZV; treated at time of infection): significantly reduced total VZV DNA
